Test results from the METLIN SMRT retention time set (Domingo-Almenara et al. 2019).

Test: gradient 5% acetonitrile 3 min, to 50% in 2 min, to 85% in 15 min, held 3 min, 100 µL/min
Details: column: Zorbax Extend-C18 2.1 x 50 mm; eluents: water / acetonitrile, 0.1% formic acid
Outline: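 Over 3 months, pure standards in mixtures of ~100 molecules were run by HPLC coupled to a quadrupole time-of-flight mass spectrometer in positive and negative ionization mode. The column was a Zorbax Extend-C18 (2.1 × 50 mm, 1.8 μm) at 100 μL/min, eluted with water and acetonitrile each holding 0.1% formic acid, with 40 μL dead and 900 μL dwell volumes. Retention time was determined from adduct peaks chosen by software and checked manually.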

| RP-LC retention time | SMILES |
| --- | --- |
| 768 s | COc1ccc(CC(=O)Nc2ccc3c(c2)CCC(=O)N3C)c(Cl)c1 |
| 678 s | CN(C)C(=O)c1ccc2c(c1)nnn2CCNC(=O)Nc1cccc(Br)c1 |
| 997 s | COCc1cnc2c(c1SCc1ccc(F)cc1)c(=O)n(C)c(=O)n2C |
| 699 s | COc1ccc(S(=O)(=O)Nc2c(C)n(C)n(-c3ccccc3)c2=O)cc1[N+](=O)[O-] |
| 805 s | CS(=O)(=O)Nc1ccc(-c2noc(CN3C(=O)COc4ccccc43)n2)cc1 |
| 779 s | Cn1cc(CCNS(=O)(=O)c2ccc(Br)s2)c2cccnc21 |
| 558 s | CCN1C(=O)C(CC(=O)NCc2ccncc2)Sc2ncccc21 (stereo not drawn) |
| 835 s | Cc1ccc(C2CCCN2C(=O)c2nc3nc(C)cc(C(F)F)n3n2)cc1 (stereo not drawn) |
| 1010 s | CCc1ccc(NC(=O)N2CCc3nc(-c4ccccc4)ncc3C2)cc1 |
| 579 s | Cc1ccc(N2C(=O)c3cccnc3C2CC(=O)N2CCN(c3ccccn3)CC2)cc1 (stereo not drawn) |
| 634 s | Cc1cnc(-c2ccccc2)n1CCNS(=O)(=O)c1ccc(C#N)cc1 |
| 675 s | Cc1c(C(=O)Nc2ccc(CC(=O)NC3CC3)cc2)cnn1-c1ccccc1 |
| 773 s | CCNC(=O)CCc1nc2ccccc2n(CC(=O)NCCc2ccc(Cl)cc2)c1=O |
| 675 s | Cc1ccc(NC(=O)Nc2ccc(CC(N)=O)cc2)cc1C |
| 818 s | Cc1ccc(CNC(=O)C2(C)CN(S(C)(=O)=O)CC(=O)N2c2cccc(F)c2)cc1 (stereo not drawn) |
| 907 s | Cc1cccc(-c2nocc2CCC(=O)NCc2ccccc2)c1 |
| 665 s | COc1ccc(-c2cc3c4nnc(CCC(=O)NCc5ccco5)n4ccn3n2)cc1 |
| 784 s | CN(C)C(=O)c1ccc2c(c1)N(CC(=O)N1CCN(c3ccccn3)CC1)C(=O)CO2 |

| RP-LC retention time | SMILES |
| --- | --- |
| 859 s | CCOc1cc([C@@H](CS(C)(=O)=O)N2C(=O)c3cccc(NC(C)=O)c3C2=O)ccc1OC |
| 880 s | COc1ccc(NC(=O)C2CCN(S(=O)(=O)c3ccc4c(c3)sc(=O)n4C)CC2)cc1Cl |
| 696 s | O=C1CCCN1c1ccc(Cn2cccc(S(=O)(=O)N3CCCC3)c2=O)cc1 |
| 981 s | CCOc1ccc(NC(=O)Cn2c(=O)n(-c3ccccc3)c(=O)c3sc(SCC)nc32)cc1 |
| 1090 s | O=S(=O)(Cc1ccc(Cl)cc1)N1CCc2nc(-c3ccccc3)ncc2C1 |
| 1100 s | CCc1cc(=O)n(CC(=O)Nc2ccc3c(c2)OCO3)c(-c2cccc(F)c2)n1 |
| 904 s | CC(=O)N1CCc2cc(N3CC(C(=O)NC(C)c4ccccn4)CC3=O)ccc21 (stereo not drawn) |
| 840 s | CC1(C(=O)NCc2ccccc2)CCCN(C(=O)NCCc2ccccc2)C1 (stereo not drawn) |
| 746 s | CN1CCCc2cc(C(CNC(=O)C(=O)NCc3ccccc3)N3CCCCC3)ccc21 (stereo not drawn) |
| 665 s | Cc1ccc(NC(=O)CN2CCc3[nH]c4c(C)cc(F)cc4c(=O)c3C2)c(Cl)c1 |
| 1100 s | COc1ccc(C)cc1NC(=O)Cn1nc2cc(C)nc(Nc3ccc(F)cc3)n2c1=O |
| 974 s | CCc1nn2c(CNS(=O)(=O)c3ccc(F)c(C)c3)c(-c3ccccc3)nc2s1 |
| 806 s | O=S(=O)(Nc1cc(-c2ccoc2)no1)c1ccc(F)cc1F |
| 1340 s | CC1CCN(S(=O)(=O)c2ccc3nn(CCOc4ccc(F)cc4)c(=O)n3c2)CC1 |
| 652 s | CCn1c(=O)c(=O)n(CC(=O)NCc2ccco2)c2cccnc21 |
| 586 s | Cc1cc(N2CCN(C)CC2)nc2ccc(NC(=S)NCc3ccc4c(c3)OCO4)cc12 |
| 704 s | CC1(C(=O)NCc2ccc(Cl)cc2)CCCCC(=O)N1 (stereo not drawn) |
| 943 s | Cc1cc(C)n(-c2ccc(C(=O)NCc3cc(F)cc(F)c3)cn2)n1 |

Further lines, the molecule ahead of its results:

| SMILES | RP-LC retention time |
| --- | --- |
| C=CCn1c(C)c(CC(=O)N2CCCC2)c(=O)n2nc(-c3ccc(C)cc3)nc12 | 789 s |
| O=C(NC1CCCCCC1)C1CCN(S(=O)(=O)c2ccc(-c3noc(C4CC4)n3)cc2)CC1 | 836 s |
| Cn1cc(-c2cc3n(n2)CCCN3C(=O)CCC(=O)NCCCN2CCCC2)c2ccccc21 | 620 s |
| CC(=O)Nc1ccc(NC(=O)c2ccc3nc(-c4ccccc4)cn3c2)cc1 | 612 s |
| Cn1c(=O)c(=O)n(C)c2cc(N3CCCC3)c(NC(=O)Cc3ccccc3Cl)cc21 | 793 s |
| CN(C)c1ccc(Nc2nc(-c3ccccc3)cs2)cc1 | 705 s |
| Cc1cnc(CCNS(=O)(=O)c2ccc(C#N)cc2)n1C1CC1 | 960 s |
| Cc1ccc(CN2CCC(c3nc(-c4cnccn4)n[nH]3)CC2)c(C)c1 | 593 s |
| Cc1ccccc1-c1noc(Cn2ccn(-c3ccccc3C)c(=O)c2=O)n1 | 880 s |
| COc1ccc(NC(=O)c2[nH]c3cc(C)sc3c2CN2CCCC2)c(C)c1 | 708 s |
| O=C(CSc1ncnc2c1nnn2Cc1ccc(F)cc1)N1CCCC1 | 764 s |
| CC1CCN(c2ncc3c(n2)CCC(C(=O)NCCc2cccnc2)C3)CC1 (stereo not drawn) | 598 s |
| Cc1noc(C)c1CN1CCCCC1c1nc(-c2ccncc2)no1 (stereo not drawn) | 649 s |
| O=C(NCc1cccc(C(F)(F)F)c1)C1CCN(c2cc(N3CCOCC3)ncn2)CC1 | 672 s |
| COc1ccc(C(C)NC(=O)c2cn3c(n2)COCC3)cc1OC (stereo not drawn) | 608 s |
| O=C(Nc1cc(F)ccc1F)c1c(O)c2cccnc2n(Cc2ccccc2)c1=O | 1170 s |
| Cn1cc(CC(=O)N2CCN(S(=O)(=O)C3CC3)CC2)c2ccccc21 | 577 s |
| CCOc1ccc(Cl)cc1S(=O)(=O)N1CCC(C(=O)NCCOC)CC1 | 753 s |
| CCCc1cc(N2CCN(C(=O)c3ccsc3)CC2)nc2nnc(CC)n12 | 624 s |
| CCOc1ccc(NC(=O)N2CCc3[nH]cnc3C2c2ccncc2)cc1 (stereo not drawn) | 561 s |
| Cc1oc2ncnc(N3CCCC(C(=O)NCc4cccnc4)C3)c2c1C (stereo not drawn) | 593 s |
| COc1cccc(-c2cc(C(N)=O)n(C)n2)c1 | 646 s |
| COc1ccc(-c2csc(NC(=O)c3cccc([N+](=O)[O-])c3C(=O)O)n2)cc1 | 938 s |
| CO[C@H]1CN(C2CCN(S(=O)(=O)c3ccc(C#N)cc3)CC2)[C@H]1c1cccnc1 | 609 s |
| CC(C)(C)C(=O)N1CCCC(c2ccnc(-c3ccccc3)n2)C1 (stereo not drawn) | 1020 s |
| CCCCOc1ccc(C(=O)Nc2nc(-c3ccc(OC)c(C)c3)cs2)cc1 | 1240 s |

| SMILES | RP-LC retention time |
| --- | --- |
| CCN(CC)CCNC(=O)c1cc(Br)c(N)cc1OC | 645 s |
| CCCOC(=O)c1cnc2nc(C)ccc2c1NCc1ccc(OC)c(OC)c1 | 701 s |
| O=C(NCc1ccco1)C1CCN(S(=O)(=O)c2cc(C(=O)N3CCCC3)cs2)CC1 | 715 s |
| CCc1nnsc1C(=O)Nc1ccc(S(=O)(=O)Nc2onc(C)c2C)cc1 | 759 s |
| CCC(C)NC(=O)c1cn(-c2cc(-c3nc(C4CC4)no3)ccn2)cn1 (stereo not drawn) | 840 s |
| COCCNC(=O)c1nn(-c2ccc(F)cc2)nc1CO | 730 s |
| Cn1nc(-c2nc(C3CC3)no2)c2c1CCN(C(=O)c1cccnc1)C2 | 642 s |
| CCc1ccc(OCc2nc(CCN(C)C(=O)Cc3cccs3)no2)cc1 | 1000 s |
| CC(C)CCNC(=O)C1CCN(Cc2cc3ccccc3n2Cc2ccccc2Cl)CC1 | 829 s |
| CCCCNc1c(C(=O)OC)c(=O)[nH]c2ccc(F)cc12 | 734 s |
| O=[N+]([O-])c1ccc(S(=O)(=O)N2CCN(c3ccc(NCC4CCCO4)nn3)CC2)cc1 (stereo not drawn) | 568 s |
| COc1ccc(Cl)cc1C(=O)NCC(c1ccsc1)N1CCCC1 (stereo not drawn) | 582 s |
| COc1cc(OC)cc(-c2nc(-c3cn(Cc4ccccc4)nn3)no2)c1 | 1000 s |
| Cn1cc(SCC(=O)N2CCCc3ccccc32)c2ccccc21 | 942 s |
| O=C(CCC1CCN(c2cc(NC3CC3)ncn2)CC1)NCc1cc(F)ccc1F | 666 s |
| CC(C)CC(=O)NC(Cc1ccccc1)c1nnc(N2CCN(C)CC2)o1 (stereo not drawn) | 621 s |
| CCCNC(=O)C1CCCN(c2ccc(SCC(=O)Nc3ccc(C)cc3Cl)nn2)C1 (stereo not drawn) | 748 s |
| O=C(CCc1ccccc1)NC1CCN(c2cc(-c3ccccc3)[nH]n2)C1 (stereo not drawn) | 643 s |
| O=C(NC1CCN(Cc2ccccc2)CC1)C1CCCN(C(=O)c2cccc(Cl)c2)C1 (stereo not drawn) | 650 s |
| Cc1cccc(N2CCN(C(=O)C3CCN(S(=O)(=O)c4cccc5nsnc45)CC3)CC2)c1C | 1050 s |
| COc1ccc(-c2nc(Cn3c(C)cc(C)c(-c4nc(-c5ccccc5)no4)c3=O)c(C)o2)cc1 | 1230 s |
| Cn1c(N)c(S(=O)(=O)Nc2ccc(Br)cc2)c(=O)n(C)c1=O | 672 s |
| CC(C)COc1cc(=O)n2c(c1C(=O)NC1CCN(C)CC1)CCCCC2 | 571 s |
| Cc1ccnc(NC(=O)C2CCN(S(=O)(=O)c3cc(C(=O)N4CCCCCC4)cs3)CC2)c1 | 638 s |
| OC[C@@H]1CN(Cc2ccco2)C[C@H]1c1nc(-c2ccncc2)no1 | 547 s |
| Cc1cccc2nc(-c3ccccc3)c(Nc3ccc4c(c3)OCCO4)n12 | 679 s |
